Test results published in patent US20240140958A1, “FUSED QUADRACYCLIC COMPOUNDS, COMPOSITIONS AND USES THEREOF” (Tabomedex Biosciences, Inc., priority 2021, published 2024).
pIC50: −log10 of the molar value.

What was measured:
[1] = target: T1, MAPKAPK2 Recombinant Human Protein (Homo sapiens, UniProt P49137); assay: MK2 kinase assay (Z'-LYTE kinase assay kit); details: inhibition of MK2 biochemical activity; 90 min incubation at room temperature
T1 construct: purchased ThermoFisher pv3317
Description: Materials and Reagents for Measuring Inhibition of MK2 Biochemical Activity: • 1) Assay plate: 384 Well Low Volume Black Round Bottom Polystyrene NBS Microplate (Corning, Cat.No. 4514) • 2) MK2 kinase assay kit: Z' LYTE KINASE ASSAY KIT (ThermoFisher, Cat.No. pv3177) • 3) MAPKAPK2 Recombinant Human Protein (ThermoFisher, Cat.No. pv3317) • 4) DMSO (Vetec, Cat.No. V900090) • 5) DTT (Sigma, Cat.No. D0632)
MK2 Kinase Assay Procedure: • 1) Dispense 5 μl Kinase/Peptide Mixture to each wells of 384-well plate • 2) Add 2.5 μl 4× Test Compound to each well • 3) Add 2.5 μl 4× ATP Solution to each well • 4) After 90 minutes incubation at room temperature, add 5 μl Development Solution to each well • 5) After 60 minutes incubation at room temperature, add 5 μl stop Solution to each well • 6) Measure the Coumarin (Ex. 400 nm, Em. 445 nm) and Fluorescein (Ex. 400 nm, Em. 520 nm) emission signals on an Envision plate reader (PerkinElmer)

THP-1 cells = assay: THP-1 cell assay: LPS-stimulated pSer78-Hsp27 ELISA; assay type: cell-based; details: Homo sapiens, PMA-differentiated THP-1 cells, compound 60 min before 20 ng/mL LPS for 30 min
From the text: Materials and Reagents for Measuring Activity in THP-1 Cells: • 1) THP-1 cells (Cell bank of Shanghai) • 2) PMA (Sigma, Cat.No. P1585) • 3) LPS (Sigma, Cat.No. L4516) • 4) 96-well tissue-culture treated plate (Grenier, Cat.No. 655180) • 5) FBS (Thermofisher, Cat.No. 10100147) • 6) Complete EDTA-free protease inhibitor Cocktail (Roche, Cat.No. 4693132001) • 7) PhosSTOP (Roche, Cat.No. 4906845001) • 8) Phosphor-Hsp27 (Ser78) Sandwich Elisa kit (CST, Cat.No. 7295)
Cell Assay Procedure: • 1) Day 0: THP-1 cells are seeded at 50K/well in complete media (1640+10% FBS+50 μM β-ME)+20 ng/mL PMA in 96-well plate • 2) Day 1: PMA containing media is removed after 24 h incubation (37° C./5% CO2), and replaced with complete growth media. Cells are incubated an additional 48 h to recover. • 3) Day 3: Cells are incubated with or without compounds at indicated concentrations for 60 min, prior to addition of 20 ng/mL LPS. Cells are stimulated for 30 min with LPS, washed 1× with ice cold PBS, lysed on ice in Lysis buffer provided in ELISA kit with Roche protease & phosphatase inhibitors. Extracts are clarified by refrigerated centrifugation & stored at −80° C. until pHsp27/total Hsp27 ELISAs • 4) Day 3 or Day 4: Cell Signaling Technology ELISA is run for pSer78-Hsp27 on lysates diluted to approximately 2.5 μg/well. • 5) The absorbance at 450 nm was read in a SpectraMax plus plate reader (Molecular Devices). Data was processed using GraphPad prism 8.0.

T1 sequence (P49137 whole entry): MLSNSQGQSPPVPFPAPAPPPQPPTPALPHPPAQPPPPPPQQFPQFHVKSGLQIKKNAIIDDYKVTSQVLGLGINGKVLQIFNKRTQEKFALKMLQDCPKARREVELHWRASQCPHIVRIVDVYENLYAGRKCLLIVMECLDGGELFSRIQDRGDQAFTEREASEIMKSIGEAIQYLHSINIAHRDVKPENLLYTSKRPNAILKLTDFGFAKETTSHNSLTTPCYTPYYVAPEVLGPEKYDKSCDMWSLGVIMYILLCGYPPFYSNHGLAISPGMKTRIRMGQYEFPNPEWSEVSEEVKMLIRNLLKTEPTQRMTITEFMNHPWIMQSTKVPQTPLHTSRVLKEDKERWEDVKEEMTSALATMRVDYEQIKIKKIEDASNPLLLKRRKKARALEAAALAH

| Compound | pIC50 [1] | pIC50 (THP-1 cells) |
| --- | --- | --- |
| CN(C)[C@H]1CCN(C(=O)Nc2ccc3c(c2)Cn2cc(-c4ccc(C#N)cc4)cc2-c2nccn2-3)C1 [Example 73] | > 7.30 | > 7.30 |
| CN(C)C[C@@H]1CN(c2ccc3c(c2)Cn2cc(-c4ccc(C#N)cc4)cc2-c2nccn2-3)C(=O)O1 [Example 1, (R)-4-(7-(5-((Dimethylamino)methyl)-2-oxooxazolidin-3-yl)-9H-benzo [e]imidazo[2,1-c]pyrrolo[1,2-a][1,4]diazepin-12-yl)benzonitrile] | > 7.30 | > 7.30 |
| CC(C)(N)[C@@H]1CC(=O)N(c2ccc3c(c2)Cn2cc(-c4ccc(C#N)cc4)cc2-c2nccn2-3)C1 [Example 53] | > 7.30 | 6.40 to 6.52 |
| CN(C)[C@@H]1CCN(C(=O)Nc2ccc3c(c2)Cn2cc(-c4ccc(C#N)cc4)cc2-c2nccn2-3)C1 [Example 74] | > 7.30 | 7.00 to 7.30 |
| [2H]C([2H])([2H])N(C[C@@H]1CCN1C(=O)c1ccc2c(c1)Cn1cc(-c3ccc(C#N)cc3)cc1-c1nccn1-2)C([2H])([2H])[2H] [Example 120, (S)-4-(7-(2-((Bis(methyl-d3)amino)methyl)azetidine-1-carbonyl)-9H-benzo[e]imidazo[2,1-c]pyrrolo[1,2-a][1,4]diazepin-12-yl)benzonitrile] |  | > 7.30 |
| N#Cc1ccc(-c2cc3n(c2)Cc2cc(N4C[C@@H](CN5CC(O)C5)CC4=O)ccc2-n2ccnc2-3)cc1 [Example 29] | > 7.30 | 7.00 to 7.30 |
| CN(C)C[C@@H]1CC(=O)N(c2ccc3c(c2)Cn2cc(-c4ccc(C#N)cc4)cc2-c2nccn2-3)C1 [Example 17, (S)-4-(7-(4-((Dimethylamino)methyl)-2-oxopyrrolidin-1-yl)-9H-benzo[e]imidazo[2,1-c]pyrrolo[1,2-a][1,4]diazepin-12-yl)benzonitrile] | 7.00 to 7.30 | 6.52 to 6.70 |
| CN(C)CC1CN(C(=O)c2ccc3c(c2)Cn2cc(-c4ccc(C#N)cc4)cc2-c2nccn2-3)C1 [Example 117] | 7.00 to 7.30 | 6.00 to 6.30 |
| CN(C)CC[C@@H]1CCN(c2ccc3c(c2)Cn2cc(-c4ccc(C#N)cc4)cc2-c2nccn2-3)C1=O (single isomer, unassigned) [Example 42] | > 7.30 | > 7.30 |
| N#Cc1ccc(-c2cc3n(c2)Cc2cc(N4C[C@@H](CN5CCC5)CC4=O)ccc2-n2ccnc2-3)cc1 [Example 27] | > 7.30 | > 7.30 |
| CN(C)C[C@H]1CC(=O)N(c2ccc3c(c2)Cn2cc(-c4ccc(C#N)cc4)cc2-c2nccn2-3)C1 [Example 7, (R)-4-(7-(4-((Dimethylamino)methyl)-2-oxopyrrolidin-1-yl)-9H-benzo[e]imidazo[2,1-c]pyrrolo[1,2-a][1,4]diazepin-12-yl)benzonitrile] | > 7.30 | > 7.30 |
| CN(C)CCn1ccn(-c2ccc3c(c2)Cn2cc(-c4ccc(C#N)cc4)cc2-c2nccn2-3)c1=O [Example 70, 4-(7-(3-(2-(Dimethylamino)ethyl)-2-oxo-2,3-dihydro-1H-imidazol-1-yl)-9H-benzo[e]imidazo[2,1-c]pyrrolo[1,2-a][1,4]diazepin-12-yl)benzonitrile] | > 7.30 | 6.00 to 6.30 |
| CC(C)NC[C@H]1CC(=O)N(c2ccc3c(c2)Cn2cc(-c4ccc(C#N)cc4)cc2-c2nccn2-3)C1 [Example 12] | > 7.30 | 6.70 to 7.00 |
| N#Cc1ccc(-c2cc3n(c2)Cc2cc(N4C[C@@H](CN5CCC5)OC4=O)ccc2-n2ccnc2-3)cc1 [Example 5] | > 7.30 | > 7.30 |
| [2H]C([2H])([2H])N(CC1CCN(c2ccc3c(c2)Cn2cc(-c4ccc(C#N)cc4)cc2-c2nnc(C)n2-3)C1=O)C([2H])([2H])[2H] (stereo not drawn) [Example 86, 4-(7-(3-((Bis(methyl-d3)amino)methyl)-2-oxopyrrolidin-1-yl)-3-methyl-9H-benzo [e]pyrrolo[1,2-a][1,2,4]triazolo[3,4-c][1,4]diazepin-12-yl)benzonitrile] | > 7.30 | 6.40 to 6.52 |
| CC1(C)CCN1C[C@H]1CC(=O)N(c2ccc3c(c2)Cn2cc(-c4ccc(C#N)cc4)cc2-c2nccn2-3)C1 [Example 19] | > 7.30 | 7.00 to 7.30 |
| N#Cc1ccc(-c2cc3n(c2)Cc2cc(N4C[C@@H](C5(N)CC5)CC4=O)ccc2-n2ccnc2-3)cc1 [Example 50] | > 7.30 | 7.00 to 7.30 |

| Compound | pIC50 [1] | pIC50 (THP-1 cells) |
| --- | --- | --- |
| CN(C)CCNC(=O)c1ccc2c(c1)Cn1cc(-c3ccc(C#N)cc3)cc1-c1nccn1-2 [Example 101, 12-(4-Cyanophenyl)-N-(2-(dimethylamino)ethyl)-9H-benzo[e]imidazo[2,1-c]pyrrolo[1,2-a][1,4]diazepine-7-carboxamide] | 7.00 to 7.30 | 6.70 to 7.00 |
| CN(C)C(C)(C)[C@H]1CC(=O)N(c2ccc3c(c2)Cn2cc(-c4ccc(C#N)cc4)cc2-c2nccn2-3)C1 [Example 54] | > 7.30 | > 7.30 |
| CN(C)C[C@@H]1CN(c2ccc3c(c2)Cn2cc(-c4ccc(C#N)cc4)cc2-c2nccn2-3)C(=O)N1C [Example 56, (R)-4-(7-(4-((Dimethylamino)methyl)-3-methyl-2-oxoimidazolidin-1-yl)-9H-benzo[e]imidazo[2,1-c]pyrrolo[1,2-a][1,4]diazepin-12-yl)benzonitrile] | 7.00 to 7.30 | 6.52 to 6.70 |
| CC(C)(C)NC[C@@H]1CN(c2ccc3c(c2)Cn2cc(-c4ccc(C#N)cc4)cc2-c2nccn2-3)C(=O)O1 [Example 4] | > 7.30 | > 7.30 |
| CNC[C@@H]1CN(c2ccc3c(c2)Cn2cc(-c4ccc(C#N)cc4)cc2-c2nccn2-3)C(=O)O1 [Example 3] | > 7.30 | > 7.30 |
| CN1CC(N2C(=O)CN(c3ccc4c(c3)Cn3cc(-c5ccc(C#N)cc5)cc3-c3nccn3-4)C2=O)C1 [Example 69] | > 7.30 | > 7.30 |
| CN1CC(N2CCN(c3ccc4c(c3)Cn3cc(-c5ccc(C#N)cc5)cc3-c3nccn3-4)C2=O)C1 [Example 58, 4-(7-(3-(1-Methylazetidin-3-yl)-2-oxoimidazolidin-1-yl)-9H-benzo[e]imidazo[2,1-c]pyrrolo[1,2-a][1,4]diazepin-12-yl)benzonitrile] | > 7.30 | > 7.30 |
| CN(C)[C@H]1C[C@@H](N2CCN(c3ccc4c(c3)Cn3cc(-c5ccc(C#N)cc5)cc3-c3nccn3-4)C2=O)C1 [Example 59] | > 7.30 | 7.00 to 7.30 |
| CNC[C@@H]1CCN1C(=O)c1ccc2c(c1)Cn1cc(-c3ccc(C#N)cc3)cc1-c1nccn1-2 [Example 137, (S)-4-(7-(2-((Methylamino)methyl)azetidine-1-carbonyl)-9H-benzo[e]imidazo [2,1-c]pyrrolo[1,2-a][1,4]diazepin-12-yl)benzonitrile] |  | 6.52 to 6.70 |
| Cc1nnc2n1-c1ccc(N3C[C@@H](CN(C)C)OC3=O)cc1Cn1cc(-c3ccc(C#N)cc3)cc1-2 [Example 83] | 7.00 to 7.30 |  |
| CC1(CN2C(=O)CN(c3ccc4c(c3)Cn3cc(-c5ccc(C#N)cc5)cc3-c3nccn3-4)C2=O)CNC1 [Example 64, 4-(7-(3-((3-Methylazetidin-3-yl)methyl)-2,4-dioxoimidazolidin-1-yl)-9H-benzo[e]imidazo[2,1-c]pyrrolo[1,2-a][1,4]diazepin-12-yl)benzonitrile] | > 7.30 |  |
| CN1CCCC1CNC(=O)c1ccc2c(c1)Cn1cc(-c3ccc(C#N)cc3)cc1-c1nccn1-2 (stereo not drawn) [Example 106] | 6.70 to 7.00 |  |
| Cc1nnc2n1-c1ccc(N3CCC(CCN(C)C)C3=O)cc1Cn1cc(-c3ccc(C#N)cc3)cc1-2 (stereo not drawn) [Example 81, 4-(7-(3-(2-(Dimethylamino)ethyl)-2-oxopyrrolidin-1-yl)-3-methyl-9H-benzo[e]pyrrolo[1,2-a][1,2,4]triazolo[3,4-c][1,4]diazepin-12-yl)benzonitrile] | 7.00 to 7.30 |  |
| Cc1nnc2n1-c1ccc(N3CCN(CCN(C)C)C3=O)cc1Cn1cc(-c3ccc(C#N)cc3)cc1-2 [Example 85] | > 7.30 |  |
| CN(C)CC(C)(C)NC(=O)c1ccc2c(c1)Cn1cc(-c3ccc(C#N)cc3)cc1-c1nccn1-2 [Example 130] | 6.70 to 7.00 |  |
| CC(C)(N)[C@H]1CC(=O)N(c2ccc3c(c2)Cn2cc(-c4ccc(C#N)cc4)cc2-c2nccn2-3)C1 [Example 52] | > 7.30 |  |
